Experimental findings from patent US20250134888A1, “INHIBITORS OF MALIC ENZYME 1” (Cornell University, priority 2022, published 2025) are described below.

One data set deals with CAPAN1. Kind of data set: Activity in Capan1 cells (ME1 responder line). Conditions: Homo sapiens. In kind it is cell-based. The procedure: (§1) Compound 1-4 were tested (Table 1) for inhibition of ME1. […] Capan1 is an ME1 responder line. H23 is an ME1 non-responder line.
(§2) Compound 5-7 were tested (Table 2) for inhibition of ME1. […] Capan1 is an ME1 responder line. H23 is an ME1 non-responder line.

The nature of the next data set: Permeability pH 6.5. Conditions: PAMPA. The format is in vitro ADME.
The next data set relates to H23. Kind of data set: Activity in H23 cells (ME1 non-responder line). The settings on record: Homo sapiens. The format is cell-based. The procedure:
as §1, §2

Where [1] appears, read: CAPAN-1, Table 1, read-out: CAPAN1 IC50/EC50.
[2] abbreviates: NCI-H23, Table 1, read-out: H23 IC50/EC50.
The mark [3] stands for this setting: CAPAN-1, Table 2, read-out: CAPAN1 IC50/EC50.
Where [4] appears, read: NCI-H23, Table 2, read-out: H23 IC50/EC50.

Read-outs that look alike come from different tables or passages of the source. Where only a bound is given, the exact number is not on record here.

Consider `Cc1nn(-c2ccc(Cl)cc2)c2ncc(C(=O)NC3CCN(C)CC3)cc12` [Compound 4], for which the EC50 with CAPAN1 (setting [1]) was found to be 1.8 µM. In the data set “Permeability pH 6.5” (Table 1), this molecule gave a Papp greater than 30 ×10⁻⁶ cm/s.
In the case of `CC1CCN(c2ccc3nnc(-c4cccc(CN(C)C)c4)n3n2)CC1` [Compound 1], the results for the EC50 with CAPAN1 (setting [1]) and in the data set with H23 (setting [2]) were 16.1 µM and 8.1 µM, respectively. This molecule displayed a Papp in the data set “Permeability pH 6.5” (Table 1) of 26.5 ×10⁻⁶ cm/s.
On the same counts, the results for `CC1CCN(c2nc3c(c(N4CCc5n[nH]cc5C4)n2)CS(=O)(=O)C3)CC1` [Compound 3] are 26.6 µM, 4.8 µM and greater than 30 ×10⁻⁶ cm/s.
With `Cc1cc(=O)c(O)cn1CCN1CCCc2ccccc21` [Compound 5], the results for the EC50 in the data set with CAPAN1 (setting [3]) and in the data set with H23 (setting [4]) were 2.4 µM and 8.6 µM, respectively. The molecule also returned a Papp in the data set “Permeability pH 6.5” (Table 2) of 15.1 ×10⁻⁶ cm/s.
With `Cc1cc(=O)c(O)cn1CCCc1ccc(Cl)cc1` [Compound 6], the EC50 came out at 0.78 µM with CAPAN1 (setting [3]) and 1.7 µM with H23 (setting [4]). The same molecule returned a Papp in the data set “Permeability pH 6.5” (Table 2) of 18.1 ×10⁻⁶ cm/s.
`Cc1cc(=O)c(O)c(CN2CC=C(c3ccc(F)cc3)CC2)n1C` [Compound 7]: the EC50 in the data set with CAPAN1 (setting [3]) was determined as 26.6 µM; with H23 (setting [4]), 5.7 µM.
`CCN1CCC(C(=O)Nc2cccc(-c3nnc4ccc(N5CCC(C)CC5)nn34)c2)CC1` [Compound 2]: the EC50 is 3.1 µM with CAPAN1 (setting [1]) and 8.6 µM in the data set with H23 (setting [2]). The molecule also registered a Papp in “Permeability pH 6.5” (Table 1) of less than 0.3 ×10⁻⁶ cm/s.
